Experimental data from PubChem BioAssay (NCI).
Values joined by “and” are separate entries in the source; they are usually repeats but may differ in a detail not shown here. Equal values may be shown once.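 Protocol summary: plate cells (96-well), add compound at 5 concentrations, incubate 48 h, interpolate endpoints linearly. Abbreviation: GI50, concentration required for 50% inhibition of growth. Definition used: TGI = concentration required for complete inhibition of growth.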

Experiments:
Assay in all cases: DTP human tumour cell line panel, 48 h
NCI-H23 lung = tested on: NCI-H23 lung
RPMI-8226 leukemia = tested on: RPMI-8226 leukemia
CCRF-CEM leukemia = tested on: CCRF-CEM leukemia
HCT-116 colon = tested on: HCT-116 colon
IGROV1 ovarian = tested on: IGROV1 ovarian
MCF7 breast = tested on: MCF7 breast
EKVX NSCLC = tested on: EKVX NSCLC
M14 melanoma = tested on: M14 melanoma
KM12 colon = tested on: KM12 colon
HCT-15 colon = tested on: HCT-15 colon
PC-3 prostate = tested on: PC-3 prostate
CAKI-1 renal = tested on: CAKI-1 renal
SF-268 CNS = tested on: SF-268 CNS
LOX IMVI melanoma = tested on: LOX IMVI melanoma
K-562 leukemia = tested on: K-562 leukemia
MOLT-4 leukemia = tested on: MOLT-4 leukemia
NCI-H460 lung = tested on: NCI-H460 lung
MALME-3M melanoma = tested on: MALME-3M melanoma
MDA-MB-435 = tested on: MDA-MB-435
OVCAR-8 ovarian = tested on: OVCAR-8 ovarian
SF-295 CNS = tested on: SF-295 CNS
SR leukemia = tested on: SR leukemia
786-0 renal = tested on: 786-0 renal
SK-MEL-28 melanoma = tested on: SK-MEL-28 melanoma
SN12C renal = tested on: SN12C renal
NCI/ADR-RES ovarian = tested on: NCI/ADR-RES ovarian
A549 NSCLC = tested on: A549 NSCLC
HT29 colon = tested on: HT29 colon
OVCAR-4 ovarian = tested on: OVCAR-4 ovarian
TK-10 renal = tested on: TK-10 renal
SNB-75 CNS = tested on: SNB-75 CNS
BT-549 breast = tested on: BT-549 breast
HS 578T breast = tested on: HS 578T breast
HCC-2998 colon = tested on: HCC-2998 colon
SW-620 colon = tested on: SW-620 colon
SNB-19 CNS = tested on: SNB-19 CNS
NCI-H226 lung = tested on: NCI-H226 lung
DU-145 prostate = tested on: DU-145 prostate
HL-60(TB) leukemia = tested on: HL-60(TB) leukemia
OVCAR-3 ovarian = tested on: OVCAR-3 ovarian
NCI-H522 lung = tested on: NCI-H522 lung
UO-31 renal = tested on: UO-31 renal
SK-MEL-2 melanoma = tested on: SK-MEL-2 melanoma
A498 renal = tested on: A498 renal
U251 CNS = tested on: U251 CNS
SK-OV-3 ovarian = tested on: SK-OV-3 ovarian
HOP-62 NSCLC = tested on: HOP-62 NSCLC
MDA-MB-231 breast = tested on: MDA-MB-231 breast
OVCAR-5 ovarian = tested on: OVCAR-5 ovarian
UACC-62 melanoma = tested on: UACC-62 melanoma
SF-539 CNS = tested on: SF-539 CNS
ACHN renal = tested on: ACHN renal
UACC-257 melanoma = tested on: UACC-257 melanoma
RXF 393 renal = tested on: RXF 393 renal
SK-MEL-5 melanoma = tested on: SK-MEL-5 melanoma

COc1cc2c(c(O)c1Cl)C(=O)c1c(O)cc(C[C@H](C)O)cc1[C@H]2[C@H]1c2cc(C[C@H](C)O)cc(O)c2C(=O)c2c1cc(OC)c(Cl)c2O
TGI (NCI-H23 lung): 75 µM and 84.6 µM | TGI (RPMI-8226 leukemia): 75 µM and 74.4 µM | TGI (CCRF-CEM leukemia): 75 µM and > 100 µM | TGI (HCT-116 colon): 75 µM and > 100 µM | TGI (IGROV1 ovarian): 39 µM and > 100 µM | TGI (MCF7 breast): 75 µM and 94.4 µM | TGI (EKVX NSCLC): 75 µM and 90.9 µM | TGI (M14 melanoma): 75 µM and > 100 µM | TGI (KM12 colon): 75 µM and > 100 µM | TGI (HCT-15 colon): 75 µM and > 100 µM | TGI (PC-3 prostate): 75 µM and > 100 µM | TGI (CAKI-1 renal): 11.4 µM and > 100 µM | GI50 (SF-268 CNS): 3.36 µM and 31.5 µM | TGI (SF-268 CNS): 75 µM and > 100 µM | TGI (LOX IMVI melanoma): 13.2 µM and > 100 µM | TGI (K-562 leukemia): 75 µM and > 100 µM | TGI (MOLT-4 leukemia): 75 µM and > 100 µM | TGI (NCI-H460 lung): 17.7 µM and 52.1 µM | TGI (MALME-3M melanoma): 5.27 µM and 47.3 µM | TGI (MDA-MB-435): 16 µM and 98.3 µM | TGI (OVCAR-8 ovarian): 75 µM and > 100 µM | TGI (SF-295 CNS): 5.91 µM and 53.6 µM | TGI (SR leukemia): 75 µM and > 100 µM | GI50 (786-0 renal): 3.21 µM and 30.3 µM | TGI (786-0 renal): 75 µM and > 100 µM | TGI (SK-MEL-28 melanoma): 75 µM and > 100 µM | TGI (SN12C renal): 75 µM and > 100 µM | GI50 (NCI/ADR-RES ovarian): 54.8 µM and 58.8 µM | TGI (NCI/ADR-RES ovarian): 75 µM and > 100 µM | TGI (A549 NSCLC): 75 µM and > 100 µM | TGI (HT29 colon): 75 µM and > 100 µM | TGI (OVCAR-4 ovarian): 75 µM and > 100 µM | TGI (TK-10 renal): 33 µM and > 100 µM | TGI (SNB-75 CNS): 16.4 µM and 70.3 µM | GI50 (BT-549 breast): 2.51 µM and 14 µM | TGI (BT-549 breast): 59 µM and 55.1 µM | TGI (HS 578T breast): 75 µM and 64.9 µM | TGI (HCC-2998 colon): 75 µM and > 100 µM | TGI (SW-620 colon): 75 µM and > 100 µM | TGI (SNB-19 CNS): 75 µM and > 100 µM | TGI (NCI-H226 lung): 75 µM and 98.1 µM | TGI (DU-145 prostate): 75 µM and > 100 µM

Cc1ccc([P+](Cc2ccccc2)(c2ccccc2)c2ccccc2)cc1
GI50 (HL-60(TB) leukemia): 1.14 µM | TGI (HL-60(TB) leukemia): 3.69 µM | GI50 (OVCAR-3 ovarian): 1.52 µM | TGI (OVCAR-3 ovarian): 65.8 µM | GI50 (RPMI-8226 leukemia): 0.6 µM | TGI (RPMI-8226 leukemia): 6.63 µM | GI50 (CCRF-CEM leukemia): 2.5 µM | TGI (CCRF-CEM leukemia): 18.9 µM | GI50 (HCT-116 colon): 1.81 µM | TGI (HCT-116 colon): > 100 µM | GI50 (IGROV1 ovarian): 1.92 µM | TGI (IGROV1 ovarian): 19 µM | GI50 (MCF7 breast): 1.92 µM | TGI (MCF7 breast): > 100 µM | GI50 (M14 melanoma): 2.78 µM | TGI (M14 melanoma): 16.4 µM | GI50 (KM12 colon): 1.69 µM | TGI (KM12 colon): 12 µM | GI50 (HCT-15 colon): 19.5 µM | TGI (HCT-15 colon): > 100 µM | GI50 (PC-3 prostate): 1.53 µM | TGI (PC-3 prostate): > 100 µM | GI50 (NCI-H522 lung): 1.78 µM | TGI (NCI-H522 lung): 6.88 µM | GI50 (CAKI-1 renal): 5.83 µM | TGI (CAKI-1 renal): > 100 µM | GI50 (SF-268 CNS): 3.66 µM | TGI (SF-268 CNS): > 100 µM | GI50 (UO-31 renal): 10.3 µM | TGI (UO-31 renal): 67.7 µM | GI50 (LOX IMVI melanoma): 2.48 µM | TGI (LOX IMVI melanoma): 14.3 µM | GI50 (SK-MEL-2 melanoma): 2.35 µM | TGI (SK-MEL-2 melanoma): 5.63 µM | GI50 (K-562 leukemia): 1.26 µM | TGI (K-562 leukemia): > 100 µM | GI50 (A498 renal): 1.63 µM | TGI (A498 renal): 7.15 µM | GI50 (MOLT-4 leukemia): 3.32 µM | TGI (MOLT-4 leukemia): 14 µM | GI50 (U251 CNS): 2.14 µM | TGI (U251 CNS): 24.4 µM | GI50 (SK-OV-3 ovarian): 4.1 µM | TGI (SK-OV-3 ovarian): > 100 µM | GI50 (NCI-H460 lung): 2.33 µM | TGI (NCI-H460 lung): 10.5 µM | GI50 (MDA-MB-435): 0.61 µM | TGI (MDA-MB-435): 3.42 µM | GI50 (OVCAR-8 ovarian): 1.74 µM | TGI (OVCAR-8 ovarian): 11.3 µM | GI50 (SF-295 CNS): 2.36 µM | TGI (SF-295 CNS): 7.69 µM | GI50 (HOP-62 NSCLC): 4.25 µM | TGI (HOP-62 NSCLC): > 100 µM | GI50 (SR leukemia): 2.66 µM | TGI (SR leukemia): 16.5 µM | GI50 (786-0 renal): 4.11 µM | TGI (786-0 renal): > 100 µM | GI50 (SK-MEL-28 melanoma): 3.13 µM | TGI (SK-MEL-28 melanoma): 25.8 µM | GI50 (MDA-MB-231 breast): 2.17 µM | TGI (MDA-MB-231 breast): 19.2 µM | GI50 (SN12C renal): 2.66 µM | TGI (SN12C renal): 13.1 µM | GI50 (OVCAR-5 ovarian): 3.42 µM | TGI (OVCAR-5 ovarian): > 100 µM | GI50 (UACC-62 melanoma): 1.77 µM | TGI (UACC-62 melanoma): 11.3 µM | GI50 (NCI/ADR-RES ovarian): 47.8 µM | TGI (NCI/ADR-RES ovarian): > 100 µM | GI50 (SF-539 CNS): 3.03 µM | TGI (SF-539 CNS): 50.9 µM | GI50 (A549 NSCLC): 3.08 µM | TGI (A549 NSCLC): 64.8 µM | GI50 (ACHN renal): 3.95 µM | TGI (ACHN renal): > 100 µM | GI50 (HT29 colon): 1.6 µM | TGI (HT29 colon): 10.5 µM | GI50 (UACC-257 melanoma): 0.98 µM | TGI (UACC-257 melanoma): 4.8 µM | GI50 (OVCAR-4 ovarian): 2.62 µM | TGI (OVCAR-4 ovarian): > 100 µM | GI50 (SNB-75 CNS): 2.21 µM | TGI (SNB-75 CNS): 9.71 µM | GI50 (BT-549 breast): 3.31 µM | TGI (BT-549 breast): 14.8 µM | GI50 (HS 578T breast): 3.19 µM | TGI (HS 578T breast): 83.4 µM | GI50 (HCC-2998 colon): 2.66 µM | TGI (HCC-2998 colon): 25.1 µM | GI50 (SW-620 colon): 2.66 µM | TGI (SW-620 colon): 49.6 µM | GI50 (SNB-19 CNS): 2.81 µM | TGI (SNB-19 CNS): > 100 µM | GI50 (NCI-H226 lung): 2.57 µM | TGI (NCI-H226 lung): > 100 µM | GI50 (RXF 393 renal): 3.68 µM | TGI (RXF 393 renal): 41.1 µM | GI50 (SK-MEL-5 melanoma): 0.904 µM | TGI (SK-MEL-5 melanoma): 2.3 µM | GI50 (DU-145 prostate): 3.62 µM | TGI (DU-145 prostate): > 100 µM
